# According to PubChem BioAssay (NCI):
# Several values for one entry are separate records, joined by “and”; a condition that tells them apart may be missing. Equal entries are not always repeated.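 Protocol summary: plate cells (96-well), add compound at 5 concentrations, incubate 48 h, interpolate endpoints linearly. GI50 = concentration required for 50% inhibition of growth. TGI: concentration producing complete growth inhibition.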
# Legend:
# Test in all cases: inhibition of tumour cell growth, NCI panel, 48 h
# CAKI-1 renal = system: CAKI-1 renal
# KM12 colon = system: KM12 colon
# MDA-MB-231 breast = system: MDA-MB-231 breast
# NCI-H226 lung = system: NCI-H226 lung
# OVCAR-3 ovarian = system: OVCAR-3 ovarian
# SF-268 CNS = system: SF-268 CNS
# SF-539 CNS = system: SF-539 CNS
# SK-MEL-5 melanoma = system: SK-MEL-5 melanoma
# UO-31 renal = system: UO-31 renal
# A549 NSCLC = system: A549 NSCLC
# SR leukemia = system: SR leukemia
SMILES,TGI (CAKI-1 renal),TGI (KM12 colon),TGI (MDA-MB-231 breast),TGI (NCI-H226 lung),TGI (OVCAR-3 ovarian),TGI (SF-268 CNS),TGI (SF-539 CNS),TGI (SK-MEL-5 melanoma),TGI (UO-31 renal),TGI (A549 NSCLC),TGI (SR leukemia),GI50 (CAKI-1 renal),GI50 (MDA-MB-231 breast),GI50 (NCI-H226 lung),GI50 (SK-MEL-5 melanoma),GI50 (A549 NSCLC),GI50 (KM12 colon),GI50 (SF-268 CNS)
O=C(c1ccc(Cl)cc1)N(C(=O)N1CCCCC1)c1ccccc1,> 100 µM,> 100 µM,> 100 µM,> 100 µM,> 100 µM,> 100 µM,> 100 µM,> 100 µM,> 100 µM,,,,,,,,,
O=C(O)CCCc1ccc2c(c1)CC1(C2)Cc2cc3c(cc2C1)CCCC3,,33.6 µM,,61.8 µM,35.2 µM,,3.82 µM,32.7 µM,34.2 µM,67 µM,40.7 µM,,,,,,,
C=CCON(C(=O)OC(C)(C)C)C(C)(C)C,> 100 µM,> 100 µM,> 100 µM,> 100 µM,> 100 µM,> 100 µM,,> 100 µM,> 100 µM,> 100 µM,> 100 µM,,,,,,,
CC1=NN(c2nc(N)nc(C(C)Cl)n2)C(C)(C)C1 (configuration not stated),> 100 µM,> 100 µM,> 100 µM,> 100 µM,,> 100 µM,> 100 µM,> 100 µM,> 100 µM,,> 100 µM,,,,,,,
O=C(NCCC1CNc2ccccc21)OCc1ccccc1 (configuration not stated),> 100 µM,> 100 µM,> 100 µM,,> 100 µM,> 100 µM,,> 100 µM,> 100 µM,> 100 µM,> 100 µM,,,,,,,
C[C@@H]1CC[C@]2(C)C3(C)CC[C@]2(OC3=O)[C@@]12CC(c1ccoc1)OC2=O (some centres not stated),72.6 µM,> 100 µM,,> 100 µM,58.2 µM,> 100 µM,59.2 µM,> 100 µM,45.5 µM,> 100 µM,81 µM,,,,,,,
COC(=O)[C@@]12OC[C@]34C([C@@H](O)C1O)[C@@]1(C)CC(=O)C(OC(=O)CC(C)C(F)(F)F)=C(C)C1C[C@H]3OC(=O)[C@H](O)[C@H]42 (some centres not stated),> 62.5 µM,> 62.5 µM,,14.5 µM,,56.8 µM,10.9 µM,22.2 µM,> 62.5 µM,> 62.5 µM,19.9 µM,,,,,,,
O=C(c1ccccc1)C1(Br)S(=O)(=O)OCCOS1(=O)=O,,,,> 100 µM,> 100 µM,> 100 µM,> 100 µM,> 100 µM,> 100 µM,> 100 µM,> 100 µM,,,,,,,
CCOC(=O)C1(C/C=C\CBr)CCCC1=O (configuration not stated),> 100 µM,> 100 µM,84 µM,88.6 µM,,> 100 µM,44.9 µM,> 100 µM,59.5 µM,> 100 µM,,,,,,,,
CC(SC(=S)N1CCOCC1)C(=O)Nc1nnc(-c2ccc(Cl)cc2)o1 (configuration not stated),,,> 100 µM,> 100 µM,> 100 µM,> 100 µM,> 100 µM,> 100 µM,> 100 µM,> 100 µM,40.6 µM,,,,,,,
O=c1c(-c2ccccc2)nnc2n(Cc3ccccc3)c3ccccc3n12,> 100 µM,> 100 µM,> 100 µM,> 100 µM,,> 100 µM,> 100 µM,> 100 µM,> 100 µM,> 100 µM,> 100 µM,,,,,,,
Cc1cc(O)c(/C=N/C(N)=S)c(=O)o1,> 100 µM,> 100 µM,> 100 µM,> 100 µM,> 100 µM,> 100 µM,> 100 µM,> 100 µM,> 100 µM,> 100 µM,,,,,,,,
Cn1c2ccccc2c(=O)c2c(O)cc3c(c21)C1OCC(C)(O)C1O3 (configuration not stated),> 100 µM,,> 100 µM,63.5 µM,,86.6 µM,56.2 µM,> 100 µM,36.6 µM,> 100 µM,> 100 µM,,,,,,,
O=c1[nH]c2[nH]c(=S)[nH]c(=S)c2[nH]1,> 100 µM,> 100 µM,> 100 µM,> 100 µM,,> 100 µM,,> 100 µM,> 100 µM,> 100 µM,> 100 µM,,,,,,,
Clc1ccc(C=Nc2ccc(Oc3ccc(Cl)cc3)c(Cl)c2)cc1,86.2 µM,52.5 µM,47.9 µM,> 100 µM,40.4 µM,41.1 µM,35.4 µM,49.5 µM,24.8 µM,59.1 µM,,,,,,,,
COc1cc([C@@H]2c3cc4c(cc3[C@@H](Nc3ccc(NC(=O)c5cc([N+](=O)[O-])cn5C)cc3)[C@H]3COC(=O)[C@H]23)OCO4)cc(OC)c1O,0.204 µM and 0.338 µM,,17.3 µM and 14.6 µM,0.29 µM,10.7 µM and 3.15 µM,> 33.5 µM,0.446 µM and 0.414 µM,0.183 µM and 0.316 µM,0.841 µM and 0.825 µM,1.31 µM and 0.309 µM,,0.0214 µM and 0.0725 µM,1.34 µM and 4.74 µM,0.179 µM and 0.0249 µM,0.0291 µM and 0.0847 µM,,,
O=C1CC(c2cccc(Cl)c2)Nc2ccc(N3CCCC3)cc21 (configuration not stated),> 100 µM,0.117 µM,> 100 µM,0.606 µM and 0.338 µM,> 100 µM,> 100 µM,,0.087 µM,50.7 µM,> 100 µM,,,0.433 µM,,,0.0153 µM,0.0153 µM,0.0417 µM

SMILES,TGI (CAKI-1 renal),TGI (KM12 colon),TGI (MDA-MB-231 breast),TGI (NCI-H226 lung),TGI (OVCAR-3 ovarian),TGI (SF-268 CNS),TGI (SF-539 CNS),TGI (SK-MEL-5 melanoma),TGI (UO-31 renal),TGI (A549 NSCLC),TGI (SR leukemia),GI50 (CAKI-1 renal),GI50 (MDA-MB-231 breast),GI50 (NCI-H226 lung),GI50 (SK-MEL-5 melanoma),GI50 (A549 NSCLC),GI50 (KM12 colon),GI50 (SF-268 CNS)
COC(=O)[C@@H]1CO[C@H](C(C)(C)C)N1C(=O)N1C=CC(=O)C[C@H]1C,> 100 µM,> 100 µM,> 100 µM,> 100 µM,> 100 µM,> 100 µM,,> 100 µM,> 100 µM,> 100 µM,> 100 µM,,,,,,,
COc1cc(C2c3cc4c(cc3OC(NN)C2C)OCO4)cc(OC)c1O (configuration not stated),> 100 µM,41.7 µM,84.9 µM,62 µM,> 100 µM,> 100 µM,45.4 µM,12.7 µM,61.8 µM,53.5 µM,,,,,,,,
NS(=O)(=O)c1nnc(NC(=S)NC(=O)Nc2ccc(Cl)c(Cl)c2)s1,63.6 µM,39.9 µM,> 100 µM,> 100 µM,62 µM,> 100 µM,21.8 µM,49 µM,48 µM,> 100 µM,,,,,,,,
COc1ccc2nc3cc(Cl)ccc3c(NC(C)CCCN(CCCl)CCCl)c2c1 (configuration not stated),13.9 µM,4.6 µM,,3.44 µM,6.87 µM,4.28 µM,3 µM,7.89 µM,11 µM,7.04 µM,0.502 µM,,,,,,,
COc1ccc(OC)c2sc(N3C(=O)/C(=C/c4cccc(Oc5ccccc5)c4)N=C3c3ccccc3)nc12,> 100 µM,> 100 µM,> 100 µM,,> 100 µM,> 100 µM,,> 100 µM,> 100 µM,> 100 µM,,,,,,,,
O=S(=O)(/N=C(\NO)Nc1ccc(Cl)cc1)c1cc(C(F)(F)F)cc(C(F)(F)F)c1,32.2 µM,41.1 µM,37.2 µM,35.9 µM,34.8 µM,50.7 µM,46.6 µM,32.8 µM,,34.5 µM,,,,,,,,
CC(C)(CN1CCCCC1)C(=O)/C=C/c1ccc(Br)cc1,3.71 µM,11.9 µM,,15.7 µM,5.51 µM,7.08 µM,4.96 µM,12.6 µM,> 24.7 µM,7.9 µM,7.68 µM,,,,,,,
Cn1c(CNc2ccc(-c3n[nH]c(=S)n3C)cc2)n[nH]c1=S,> 100 µM,> 100 µM,> 100 µM,> 100 µM,> 100 µM,> 100 µM,> 100 µM,> 100 µM,> 100 µM,> 100 µM,,,,,,,,
c1cc(-c2ccc(-c3ccsc3)s2)cs1,> 100 µM,,,98.7 µM,> 100 µM,> 100 µM,89.8 µM,> 100 µM,98.4 µM,64.5 µM,> 100 µM,,,,,,,
O=C1c2ccccc2C(=O)c2[nH]cnc21,> 100 µM,> 100 µM,,93.3 µM,66.2 µM,> 100 µM,> 100 µM,34.2 µM,> 100 µM,> 100 µM,> 100 µM,,,,,,,
CCOC(=O)c1c(NC(=O)c2ccccc2)c(C#N)c2n1CCCCC2,> 100 µM,> 100 µM,> 100 µM,> 100 µM,,> 100 µM,,> 100 µM,> 100 µM,> 100 µM,> 100 µM,,,,,,,
CC1(C)O[C@@H]2[C@@H](COC(C)(C)O[C@H]2C2SCCCS2)O1,> 100 µM,> 100 µM,> 100 µM,,> 100 µM,> 100 µM,> 100 µM,> 100 µM,> 100 µM,> 100 µM,,,,,,,,
COc1ccc(CCCCNCc2cccc(CNCCCCc3ccc(OC)cc3)c2)cc1,3.63 µM,3.69 µM,3.6 µM,2.33 µM,3.37 µM,3.35 µM,,3.25 µM,2.68 µM,4.86 µM,> 100 µM,,,,,,,
NNc1nnc(CCCCCCCCc2nnc(NN)n2N)n1N,> 100 µM,> 100 µM,> 100 µM,> 100 µM,,> 100 µM,> 100 µM,> 100 µM,> 100 µM,> 100 µM,,,,,,,,
CC(=O)NC1C(OCC(=O)NCCNc2ccc([N+](=O)[O-])c3[nH]c4ccccc4c(=O)c23)C(O)C(CO)OC1(C)OCc1ccccc1 (configuration not stated),> 100 µM,> 100 µM,> 100 µM,> 100 µM,> 100 µM,> 100 µM,> 100 µM,> 100 µM,> 100 µM,> 100 µM,,,,,,,,
N#Cc1sc2nc3ccccc3n2c1N,> 100 µM,23.6 µM,> 100 µM,> 100 µM,> 100 µM,> 100 µM,> 100 µM,> 100 µM,> 100 µM,> 100 µM,,,,,,,,
